A value given as a limit tells only on which side of the number the result lay.

Holding throughout (format): physicochemical
Data set [1] in a line: Stability of VD2 vs VD2 cocrystals (beta-sitosterol, orcinol) under two stress conditions, solid form analysed periodically by PXRD. The following applies: for stability under both stress conditions (in words): 25° C./57% RH and 40° C./75% RH. As to the method:
The stability of the VD2 cocrystal with beta-sitosterol and VD2 cocrystal with orcinol was studied and compared to the stability of VD2 (Form A) under two stress conditions. The samples were stored under both stress conditions inside a Series FD Binder chamber and they were analyzed periodically by PXRD. The two stress conditions were the following: • condition A: 25° C. and 57% relative humidity; • condition B: 40° C. and 75% relative humidity.
A saturated solution of sodium bromide salt (for 57% RH) and a saturated solution of sodium chloride (for 75% RH) were used to control relative humidity.

Data set [2] can be described thus: Dissolution rate of tablets in FaSSIF v2 medium (small-scale dissolution assay, UV quantification, Noyes-Whitney fit). The following applies: FaSSIF v2 (pH 6.5), 25° C.; for dissolution rate: 120 minutes, 3 mm tablet. As to the method: Molar extinction coefficients of VD2, VD3 and of the coformer were determined by UV-metric titration using a GIpKa™ titrator (Sirius Analytical Instruments, UK). Briefly, a 10 mM stock solution of sample was prepared in DMSO. 50 μL of sample stock solution and 0.25 mL of a 15 mM potassium phosphate buffer were added to 10 mL of a 0.15 M KCl solution, which in turn contained 17.9 mg of FaSSIF v2 powder. The pH of the sample solution was adjusted to 2 with 0.5 M HCl before starting the titration, and then the titration was done using 0.5 M KOH up to pH 12. The UV absorption spectra (between 250 and 450 nm) of the solution were recorded at each titrant addition by a fiber optic dip-probe. The collected data were refined through the RefinamentPro software, and the pKa values and Molar Extinction Coefficients obtained by Target Factor Analysis.
• Tablet production: tablets of 3 mm diameter were done using a manual hydraulic tablet press (Applied Measurements Ltd, UK). The applied pressure was 100 Kg for 2 min. From 6 to 10 mg of each solid form, vitamin or cocrystal, were weighted. The total exposed surface area was […]. • Medium: FaSSIF v2 (pH 6.5), with corresponding amount of phosphoric (28.4 mM) acid instead of maleic acid. • Dissolution tests were performed with a small-scale dissolution assay installed in a GIpKa™ titrator (Sirius Analytical Instruments, UK). • Dissolution time and temperature: 120 minutes and 25° C. • Procedure: 15 mL of FaSSIF v2 was added into the sample vial containing the tablet. Spectra collection started immediately after. Spectra were recorded every 30 seconds between 250 and 450 nm through a Sirius D-PAS spectrometer with a bifurcated optic fibre dip probe (Hellma Analytics). The medium was stirred at a constant rate.
The concentration of cholecalciferol (VD3) or ergocalciferol (VD2) in solution at each time point is determined from the spectroscopic data by applying the Beer-Lambert law, using previously determined molar extinction coefficients of the pure APIs and the coformers. Spectrum regions where signal is saturated (A>1.5) or presenting medium interferences were discarded. Then, the concentration data were converted into absolute sample quantities, and used to generate the graphs showing the sample quantity vs. time.
Dissolution rate is obtained through the fit of the first order Noyes-Whitney exponential equation to the data: […]
In this equation, [X]t is the weight in grams of compound in solution at the experiment time (min); S is the extrapolated solubility (g) of the vitamin; kd is the rate constant for dissolution (min^−1); and t0 (min) is a term allowing for a temporal offset. Results are calculated using a refinement process in which S, kd and t0 are varied in order to minimize the root mean square deviation between the modelled concentrations and the measured concentrations. The dissolution rate (g min^−1) is given by the product kdS (T. Gravestock et al., Anal. Methods, 2011, 3, 560).

Data set [3] is described as follows: Stability of VD3:resorcinol cocrystal vs commercial VD3 in a mineral-vitamin premix containing choline chloride (HPLC-MS). As to the method: The stability of the VD3:resorcinol cocrystal mixed in a premix that was a standard mineral-vitamin mix containing choline was studied under normal and high environmental temperature/humidity and compared to the stability of commercial VD3 for animal nutrition (Orffa D3 500) in the same premix under de same conditions.
• 25° C. and 57% humidity (temperature controlled chambers with a saturated solution of NaBr to maintain humidity at 57%); • 40° C. and 75% humidity (temperature controlled chambers with a saturated solution of NaCl to maintain humidity at 75%).
The mineral mix was supplemented to contain 750,000 UI/kg Vitamin A, 5,000 mg/kg vitamin E and 12.5% choline chloride (choline chloride, vegetal coating, 60%). VD3 final content was 1,600,000 UI/Kg (both for the cocrystal VD3:resorcinol and for the commercial VD3.
Samples (2 g) were weighted in 50 mL plastic tubes and incubated in the experimental conditions (see above). Samples for each individual time were incubated in quadruplicates to account for potential variation. Samples were prepared to be retrieved from incubators at 2, 4, 8 and 12 weeks. After each time, samples were processed and analyzed immediately (no storage).
Samples were subjected to an extraction process done in the incubation tube with the full sample to avoid sub-sampling problems. Extracted supernatant was analysed for vitamin D using and HPLC (Model 1260 Series, Agilent, Darmstadr, Germany) coupled with a MS-QQQ (Model G6420, Agilent) against a calibrated curve using a standard vitamin D3. Results are reported as a percent degradation compared with the original Vitamin concentration.

A short description of data set [4]: Stability of VD3 vs VD3:orcinol cocrystal under stress conditions (40° C.-75% RH), solid form analysed periodically by PXRD. As to the method:
The samples were stored under these conditions inside a Series FD Binder chamber and they were analyzed periodically by PXRD. A saturated solution of sodium chloride (75%) was used to control relative humidity.

[5] abbreviates: 40° C./75% H, premix with choline chloride.

Turning to `C=C1CC[C@H](O)C/C1=C/C=C1\CCC[C@]2(C)[C@@H]([C@H](C)/C=C/[C@H](C)C(C)C)CC[C@@H]12` [VD2, ergocalciferol], the “Solid form (PXRD) under stress conditions” value (from here on “Solid form (PXRD)”) in data set [1] (25° C.-57% RH, 0 days) is reported as “Form A”; in data set [1] (25° C.-57% RH, 370 days), “Amorphous phase”; in data set [1] (40° C.-75% RH, 0 days), “Form A”; in data set [1] (40° C.-75% RH, 210 days), “Liquid phase”. Moreover, the “stability under both stress conditions (in words)” value in data set [1] was “very low stability”. Further, the “time at which conversion into an amorphous phase started” value in data set [1] (both stress conditions) is not above 25 days. Also, the dissolution rate in data set [2] turned out to be 0.74 ± 0.23 nmol/min.

For the compound `C=C1CCC(O)CC1=CC=C1CCCC2(C)C1CCC2C(C)C=CC(C)C(C)C.C=C1CCC(O)CC1=CC=C1CCCC2(C)C1CCC2C(C)C=CC(C)C(C)C.CCC(CCC(C)C1CCC2C3CC=C4CC(O)CCC4(C)C3CCC12C)C(C)C` (stereo not drawn) [VD2:beta-sitosterol], the “time remained as the same starting solid form” value in data set [1] (25° C. and 57% of relative humidity) is listed as not below 370 days; in data set [1] (40° C. and 75% of relative humidity), not below 25 days. For the same compound, the “stability under both stress conditions (in words)” value in data set [1] is “very high stability”. The “Solid form (PXRD)” value in data set [1] (40° C.-75% RH, 210 days) is “Amorphous”; in data set [1] (40° C.-75% RH, 370 days), “Amorphous”.

Turning to `C=C1CC[C@H](O)C/C1=C/C=C1\CCC[C@]2(C)[C@@H]([C@H](C)CCCC(C)C)CC[C@@H]12` [VD3, cholecalciferol, reference compound], the “stability in premix, comparison of the two environmental conditions” value in data set [3] (25° C./57% H vs 40° C./75% H) is recorded as “more stable at 25° C./57% H compared with 40° C./75% H”. The “stability under stress conditions (in words)” value in data set [4] is recorded as “very low stability”. The “time to conversion into a liquid phase” value in data set [4] is “five”. In addition, the entries for the “Solid form (PXRD)” value in data set [4] (0 days) and in data set [4] (5 days) were “Form A” and “liquid”, respectively. In data set [2], this compound displayed a dissolution rate of 0.58 ± 0.14 nmol/min.

`C=C1CCC(O)CC1=CC=C1CCCC2(C)C1CCC2C(C)C=CC(C)C(C)C.C=C1CCC(O)CC1=CC=C1CCCC2(C)C1CCC2C(C)CCCC(C)C` (centres unmarked) [VD3-VD2] gave a dissolution rate in data set [2] of 0.63 ± 0.21 nmol/min.

In the case of `C=C1CCC(O)CC1=CC=C1CCCC2(C)C1CCC2C(C)CCCC(C)C.Oc1cccc(O)c1` (centres unmarked) [VD3-resorcinol], the “stability in premix compared with VD3” value in data set [3] (25° C./57% H, premix with choline chloride) was “more stable than VD3”. Also, in data set [3] (setting [5]), the “change of stability in premix” value was “sharp reduction in stability” and the “stability in premix compared with commercial VD3” value is “better performance than commercial VD3”. Besides, the “stability in premix compared with VD3” value in data set [3] (both conditions (25° C./57% H and 40° C./75% H)) is “more stable than VD3”. Further, in data set [2], the “dissolution speed compared with other solid forms” value is “dissolved faster than VD2, VD3, or VD2-VD3” and the dissolution rate was 0.94 ± 0.22 nmol/min.

On to `C=C1CCC(O)CC1=CC=C1CCCC2(C)C1CCC2C(C)CCCC(C)C.Cc1cc(O)cc(O)c1` (centres unmarked) [VD3:orcinol], for which the “stability under stress conditions (in words)” value in data set [4] was “very high stability”.

Values taken from US20230001012A1, “COCRYSTALS OF STEROID AND SECOSTEROID COMPOUNDS AND COMPOSITIONS COMPRISING THEM” (priority 2019, published 2023).
